Results from US20070185153A1 (priority 2005, published 2007).
Structures can show the parent of a compound that is named as a salt.

test system: panel of Gram-positive organisms and panel of Gram-negative organisms; assay: organism not typed; type: cell-based; details: read-out: MIC (minimum inhibitory concentration)

Row | Structure (SMILES) | MIC [µg/mL]
1 | O=c1[nH]c(CNC2CCN(C[C@]3(O)Cn4c(=O)ccc5ncc(F)c3c54)CC2)nc2ccccc12 [Example 39] | ≤ 4
2 | COc1cnc2ccc(=O)n3c2c1[C@](O)(CN1CCC(NCc2cc4c(cn2)OCCO4)CC1)C3 [Example 65] | ≤ 8
3 | CC(C)n1nnc2cc(CNC3CCN(C[C@]4(O)Cn5c(=O)ccc6ncc(F)c4c65)CC3)ccc21 [Example 47] | ≤ 8
4 | O=c1c(Cl)cc2ncc(F)c3c2n1CC3(O)CN1CCC(NCc2cc3c(cn2)OCCO3)CC1 (racemic) [Example 24, (4R/S)-8-Chloro-4-({4-[(2,3-dihydro[1,4]dioxino[2,3-c]pyridin-7-ylmethyl)amino]-1-piperidinyl}methyl)-3-fluoro-4-hydroxy-4,5-dihydro-7H-pyrrolo[3,2,1-de]-1,5-naphthyridin-7-one dihydrochloride] | ≤ 4
5 | O=c1[nH]c2ccccc2nc1CNC1CCN(C[C@]2(O)Cn3c(=O)ccc4ncc(F)c2c43)CC1 [Example 38] | ≤ 4

same assay, conditions: read-out: MIC values

Row | Structure (SMILES) | MIC [µg/mL]
6 | COc1cnc2ccc(=O)n3c2c1[C@](O)(CN1CCC(NCc2cc4c(nn2)OCCO4)CC1)C3 [Example 66] | ≥ 16
